Results on one compound are retold here after patent publication US20060089408A1, “Method of treating blepharospasm with a prostaglandin derivative” (priority 2004, published 2006).

Molecules are shown by their SMILES. Where “and” joins values, the source holds several entries; their conditions need not be identical. Identical values can stand only once.

The assay concerns patients with blepharospasm. Put plainly: Observational prospective case series of 21 consecutive patients with blepharospasm treated with Latanoprost. The format is in vivo, human. How it is done: It is the inventor's unique discovery that latanoprost improves some forms of blepharospasm. Over a period of three years starting from 2000, 21 patients with various forms of blepharospasm were treated with latanoprost. In more than 75% of the cases observed, the symptoms of blepharospasm were much improved ranging from mild resolution to complete improvement.
Observational prospective case series of 21 consecutive patients comprising mostly Asian descent with blepharospasm were treated with Latanoprost for a mean follow-up period of 1.5 years. Assessment of therapy was made by symptomatic evaluation and clinical examination. Severity of patient's initial symptoms ranged from myokimia to blepharospasm with facial dystonia.
The patients were pooled from the Los Angeles County metropolitan area and the Pacific Rim and all of the patients are of Chinese descent. The patients were excluded if they had secondary causes of blepharospasm such as light sensitivity, lid hygiene (blepharitis), dry eyes, and emotional or physical psychological stressors.
Therapeutic intervention involved administration of one drop of Latanoprost in the affected eye at night. Adverse effects were assessed by the patient's subjective feedback and physician's examination. Outcome assessment was determined mainly by subjective reporting by the patient.
Table 1 illustrates the physician's grading scale, wherein grade I signified blepharospasm isolated just to the eyes; Grade II described blepharospasm with some form of facial dystonia; and Grade III described blepharospasm with facial dystonia extending to the neck region
Table 2 illustrates patient's subjective evaluation of improvement that subjective opinion of improvement is on a scale ranging from 0 to 10, where zero indicated no improvement and 10 indicated complete resolution.
Table 3 illustrates demographics and clinical data of the patients involved in the above clinical study. In Table 3, F represent female, M represent male, duration represents duration of treatment, OU represents blepharospasm in both eyes, OD represents blepharospasm in right eye only, and OS represents blepharospasm in left eye. Date start illustrates the date starting treatment of prostaglandin derivatives, improvement illustrates the time required for first noticeable improvement, while scale imp represents scale of improvement according to the subjective evaluation grading as shown in Table 2.

As for `CC(C)OC(=O)CCC/C=C\C[C@@H]1[C@@H](CC[C@@H](O)CCc2ccccc2)[C@H](O)C[C@@H]1O` [Latanoprost, isopropyl-(Z)-7[(1R,2R,3R,5S)3,5-dihydroxy-2-[(3R)-3-hydroxy-5-phenylpentyl]cyclopentyl]-5-heptenoate], for the setting “21 consecutive patients, mean follow-up 1.5 years”, the “patients who reported moderate to complete resolution of symptoms after treatment” value was “over 75%”. Moreover, under “21 patients with various forms of blepharospasm, three years starting from 2000”, the “cases in which symptoms of blepharospasm were much improved, ranging from mild resolution to complete improvement” value is recorded as “more than 75%”. Also, the “change in spasm of eyelids and face” value (Case 1, 30 years history, right eye, 1.5 ug per day, after 3 weeks of treatment) is “considerable decrease in spasm of their eyelids and face”. Besides, where the note is “after treatment, 21 patients”, the “patients who noted subjective improvement in their blepharospasm” value is on record as 19 of 21 and the “patients who reported no change” value is recorded as 2 patients. Further, for the setting “general statement on the series”, the “duration of treatment required before effects were seen” value is on record as “approximately 2 months”. Further, the “Improvement (time required for first noticeable improvement)” value (individual patient, one drop in the affected eye at night) is 2 months (13×) and 1 months (6×). The “Scale imp (scale of improvement, patient's subjective evaluation grading)” value (individual patient, scale 0 to 10: 0 no improvement, 5 50% improvement, 10 complete resolution, one drop in the affected eye at night) is 5 (6×) and 10 (2×) and 8 (6×) and 7 and 9 (3×) and 6 and 0 (2×). The “time at which noticeable improvements occurred after initiation of treatment” value (whole series of 21 patients) is given as 1-2 months. In addition, the “average amount of improvement” value (whole series, subjective scale 0 to 10) is given as 6.95.
